Laboratory results from patent US20060002911A1, “Association between a ppar ligand and an antioxidant agent and use thereof for treating obesity” (priority 2002, published 2006).

Settings: ob/ob mice, intraperitoneal route once a day for 14 days
Method: Male C57 Black 6 ob/ob mice from 8 to 12 weeks old were used. […] After being weighed, the mice were treated with rosiglitazone (antidiabetic agent) on its own or in association with coenzyme Q10. […] In addition, the solution was pre-heated before injection. The mice were weighed every day and the weight obtained after 14 days of treatment was recorded.

SMILES: CN(CCOc1ccc(CC2SC(=O)NC2=O)cc1)c1ccccn1 (centres unmarked) [rosiglitazone]
- increase in the weight of the mice: greater than or equal to 5 grams
- increase in weight relative to initial weight (more than initial weight): about 10%
